Laboratory results from patent US20200085782A1, “COMPOSITIONS AND METHODS OF ENHANCING OR AUGMENTING TYPE I IFN PRODUCTION” (Mavupharma, Inc., priority 2016, published 2020).
pKi: −log10 of the molar value.

What was measured:
human recombinant ENPP1 [1] = target: T1, human recombinant ENPP1 (Homo sapiens, UniProt P22413); experiment: ENPP1 assay with 2′,3′-cGAMP substrate (AMP-Glo); format: biochemical
T1 sequence (P22413 1-925): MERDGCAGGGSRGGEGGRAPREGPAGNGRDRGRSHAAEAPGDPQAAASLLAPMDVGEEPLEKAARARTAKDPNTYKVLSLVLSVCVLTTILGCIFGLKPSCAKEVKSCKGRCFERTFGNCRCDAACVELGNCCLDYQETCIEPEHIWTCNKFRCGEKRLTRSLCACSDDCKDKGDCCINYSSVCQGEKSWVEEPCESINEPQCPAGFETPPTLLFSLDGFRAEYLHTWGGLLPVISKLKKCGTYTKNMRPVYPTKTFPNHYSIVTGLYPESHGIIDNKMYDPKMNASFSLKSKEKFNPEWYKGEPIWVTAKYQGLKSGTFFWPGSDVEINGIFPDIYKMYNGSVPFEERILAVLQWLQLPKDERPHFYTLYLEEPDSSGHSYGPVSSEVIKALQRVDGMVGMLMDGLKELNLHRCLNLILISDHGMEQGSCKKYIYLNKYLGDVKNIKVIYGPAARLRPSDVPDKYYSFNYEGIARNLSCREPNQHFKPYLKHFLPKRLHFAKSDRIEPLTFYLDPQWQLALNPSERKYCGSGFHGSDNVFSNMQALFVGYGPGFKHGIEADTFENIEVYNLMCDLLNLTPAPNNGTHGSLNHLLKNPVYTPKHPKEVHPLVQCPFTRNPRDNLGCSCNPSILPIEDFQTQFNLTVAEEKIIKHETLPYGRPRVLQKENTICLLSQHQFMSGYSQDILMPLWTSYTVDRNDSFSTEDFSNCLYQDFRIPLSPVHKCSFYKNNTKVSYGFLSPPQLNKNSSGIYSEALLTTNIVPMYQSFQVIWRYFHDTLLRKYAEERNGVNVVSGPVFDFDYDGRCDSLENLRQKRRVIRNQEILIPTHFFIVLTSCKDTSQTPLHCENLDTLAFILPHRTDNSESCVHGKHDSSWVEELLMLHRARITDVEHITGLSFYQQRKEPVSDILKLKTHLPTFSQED
Description: The AMP-Glo™ Assay Kit contains two reagents that are added sequentially. The first converts the 5′-AMP produced in the reaction to 5′ADP. The second converts the 5′-ADP to 5′ATP and reacts the 5′-ATP with the luciferase/luciferin pair to produce the luminescence signal. […] Inhibitors are added at final concentrations ranging between 10 μM and 30 pM depending on the compound. Duplicate wells are run at each inhibitor concentration. The final assay volume is 18 μL and human recombinant ENPP1 is present at 5 ng/well. The assay is initiated by the addition of substrate (20 μM 2′3′cGAMP final concentration), and incubated for 30 minutes at 37° C. To stop the reaction, 12 μl of AMP-Glo reagent I is added and the plate is incubated for 60 minutes at room temperature. 25 μl of AMP-detection reagent is then added and the wells are again incubated for 60 minutes at room temperature. The luminescence signal is then measured using a plate-reading luminometer. Each assay plate also includes wells with no enzyme added (MIN OD) and wells with no inhibitor added (MAX OD). The percent inhibition of ENPP1 for each sample is then calculated as: […]
(§1) IC50 values of compounds were calculated by entering the percent inhibition values into a sigmoidal variable slope nonlinear regression model in GraphPad Prism® software. IC50 values were converted to Ki values using the Cheng-Prusoff equation2 where the Km was 15 μM, based on internal determinations.

THP-1 cells = experiment: PDE inhibitors library screen on cGAMP activated THP-1 cells, IFNβ ELISA; format: cell-based, human; conditions: THP-1 cells activated with 2′,3′-cGAMP; test compound 10 μM; 24 hours; FIG. 3A-3C
Description: THP-1 Cell Activation and Screening of Test Compounds: • (a) THP-1 cells from bulk cultures were counted and suspended in RPMI 1640, 20% FBS, 2.5 mM L-alanyl-L-glutamine at a concentration of 5.5×10^6 cells/mL. The THP-1 cells were subsequently seeded into 96 well round bottom plates—volume of 180 μL/well (1×10^6 cells per well), and the plate was incubated for 1 hour at 37° C., 5% CO2. • (b) Test compounds comprising known phosphodiesterase inhibitors (PDEs), were screened in triplicate (N1, N2, N3) on THP-1 cells. For compound screening, test compounds were assayed at a final concentration of 10 μM. A 200 μM (0.2 mM) working solution of each compound was prepared by diluting 10 mM DMSO stock solutions of each compound in media at a dilution of 50:1 (1640, 20% FBS, 2.5 mM L-alanyl-L-glutamine). […] Cell culture supernatants were then transferred to a clean plate and stored at −80° C. until ready to analyze for IFNβ levels. • (j) IFNβ levels in cell culture supernatants were determined by ELISA according to the manufacturer's instructions (VeriKine Human IFNβ Assay). • (k) The interpolated data was normalized to vehicle control, or unstimulated control, and analyzed.

human recombinant ENPP1 [2] = target: T1, human recombinant ENPP1; experiment: ENPP1 assay with AMP-pNP substrate (ATP analog), absorbance at 405 nm; format: biochemical; conditions: read-out: ENPP1 inhibition Ki, AMP-pNP Substrate
Description: ENPP1 is an ectonucleotidase that hydrolyzes both the STING activator 2′,3′-cGAMP and 5′ATP (ATP). In some instances, an inhibitor of ENPP-1 is capable of selectively blocking the hydrolysis of 2′,3′-cGAMP while only minimally inhibiting the hydrolysis of ATP. […] The ENPP1 assay with AMP-pNP substrate is conducted in a buffer containing 50 mM Tris-HCl (pH 8.5)/250 mM NaCl/0.5 mM CaCl2/1 μM ZnCl2/0.1% DMSO. Inhibitors are added at final concentrations ranging between 10 μM and 30 pM depending on the compound. Duplicate wells are run at each inhibitor concentration. The final assay volume is 40 μL and human recombinant ENPP1 is present at 60 ng/well. The assay is initiated by the addition of substrate (300 μM AMP-pNP final concentration), and incubated for 20 minutes at 37° C. The absorbance at 405 nm is then read in a Tecan® plate reader. Each assay plate also includes wells with no enzyme added (MIN OD) and wells with no inhibitor added (MAX OD). The percent inhibition of ENPP1 for each sample is then calculated as: […]
as §1, with “equation,” for “equation2”, “151” for “15”, “determinations” for “determinations.”

| Substrate Selectivity Ki Ratio AMP-pNP/2′3′cGAMP (human recombinant ENPP1 [1]; Ki (AMP-pNP)/Ki (2′3′-cGAMP)) | SMILES | also measured |
| --- | --- | --- |
| – | O=c1cc(-c2ccc(O)c(O)c2)oc2cc(O)cc(O)c12 [Compound 1] | inhibition at 1 µM (human recombinant ENPP1 [1]; at 1 μM compound, AMP-GLO method, read-out: Inhibition of ENPP1 with cGAMP as the Substrate): 76%; inhibition at 10 µM (human recombinant ENPP1 [1]; at 10 μM compound, AMP-GLO method, read-out: Inhibition of ENPP1 with cGAMP as the Substrate): 99%; cGAMP mediated IFNβ production (THP-1 cells): augmentation of cGAMP mediated IFNβ production |
| >642 | COc1cc2ncnc(N3CCC(CCN)CC3)c2cc1OC [Compound 5] | – |
| 244 | COc1cc2ncc(C#N)c(N3CCC(CCNS(C)(=O)=O)CC3)c2cc1OC [Compound 7] | – |
| >158 | CS(=O)(=O)N1CCc2ccc(-c3ncnc4ccccc34)cc2C1 [Compound 8] | – |
| >128 | CN1CNc2ncnc(N3CCC(CCNS(C)(=O)=O)CC3)c21 [Compound 9] | – |
| >127 | COc1cc2ccc(=O)n(Cc3ccc(NS(N)(=O)=O)cc3)c2cc1OC [Compound 10] | pKi (human recombinant ENPP1 [1]; read-out: ENPP1 inhibition Ki, cGAMP Substrate): 6.63; pKi (human recombinant ENPP1 [2]): < 4.52 |
| >89.0 | CCN(C)S(=O)(=O)NCCC1CCN(c2ncnc3cc(OC)c(OC)cc23)CC1 [Compound 12] | – |
| 86.7 | COc1cc2ncnc(N3CCC(CNS(N)(=O)=O)CC3)c2cc1OC [Compound 13] | – |
| 57.3 | COc1cc2ncnc(N3CCN(C(=O)CNS(N)(=O)=O)CC3)c2cc1OC [Compound 15] | – |
| 48.3 | COc1cc2ncnc(-c3ccc(CNS(N)(=O)=O)cc3)c2cc1OC [Compound 17] | – |
| 47.7 | COc1cc2nc(N)nc(N3CCC(CCNS(N)(=O)=O)CC3)c2cc1OC [Compound 18] | – |
| 44.8 | COc1cc2ncnc(N3CCC4(CC3)CCN(S(C)(=O)=O)C4)c2cc1OC [Compound 19] | – |
| >38.7 | CNc1nc(N2CCC(CCNS(N)(=O)=O)CC2)c2cc(OC)c(OC)cc2n1 [Compound 20] | – |
| 36.2 | COc1cc2ncnc(-c3ccc4c(c3)CN(S(N)(=O)=O)CC4)c2cc1OC [Compound 21] | – |
| 34.7 | COc1cc2ncnc(NCc3ccc(NS(N)(=O)=O)cc3)c2cc1OC [Compound 22] | – |
| >23.9 | COc1cc2nc(-c3ccccc3)nc(N3CCC(CCNS(N)(=O)=O)CC3)c2cc1OC [Compound 23] | – |
| 18.7 | COc1cc2ncnc(N3CCC4(CC3)CN(S(C)(=O)=O)C4)c2cc1OC [Compound 24] | – |
| >6.80 | COc1cc2nccc(Oc3ccc(NS(=O)(=O)c4ccccc4)cc3)c2cc1OC [Compound 25] | selectivity for inhibition of cGAMP over AMP-pNP hydrolysis by ENPP1 (human recombinant ENPP1 [1]; Ki (AMP-pNP)/Ki (2′3′-cGAMP)): ~6.8 fold |
